Source: US20250205344A1, “2,4-DIOXOTETRAHYDROPYRIMIDINYL DERATIVES AS DEGRONS IN PROTACS” (GLAXOSMITHKLINE INTELLECTUAL PROPERTY DEVELOPMENT LIMITED, priority 2022, published 2025)
Counter-ions that a name gives are not always drawn.

molecular target: T1, Androgen Receptor (Homo sapiens, UniProt P10275, T878A); assay: Androgen Receptor Degradation Assay (Nano-Glo HiBiT); format: cell-based; conditions: LNCaP, 18 h, HiBiT-tagged AR in human LnCaP cells, read-out: mean asymptote max
T1 construct: the AR gene was modified, using CRISPR/Cas9 editing, so the expressed AR protein included an 11 amino acid HiBiT tag; endogenous in cells; host or cells: clonal LnCaP-derived line, AR gene edited by CRISPR/Cas9
Method in brief: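 LnCaP cells with CRISPR-knocked-in N-terminal HiBiT-tagged AR (10,000/well) treated 18 h at 37 °C with PROTACs over 11 threefold concentrations; lytic HiBiT luminescence normalised to DMSO (0%) and cell-free (100%) controls. Relative DC50 = 4-parameter fit inflection; absolute DC50 = 50% degradation interpolation; Dmax = maximum observed degradation.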

T1 sequence (P10275 whole entry T878A): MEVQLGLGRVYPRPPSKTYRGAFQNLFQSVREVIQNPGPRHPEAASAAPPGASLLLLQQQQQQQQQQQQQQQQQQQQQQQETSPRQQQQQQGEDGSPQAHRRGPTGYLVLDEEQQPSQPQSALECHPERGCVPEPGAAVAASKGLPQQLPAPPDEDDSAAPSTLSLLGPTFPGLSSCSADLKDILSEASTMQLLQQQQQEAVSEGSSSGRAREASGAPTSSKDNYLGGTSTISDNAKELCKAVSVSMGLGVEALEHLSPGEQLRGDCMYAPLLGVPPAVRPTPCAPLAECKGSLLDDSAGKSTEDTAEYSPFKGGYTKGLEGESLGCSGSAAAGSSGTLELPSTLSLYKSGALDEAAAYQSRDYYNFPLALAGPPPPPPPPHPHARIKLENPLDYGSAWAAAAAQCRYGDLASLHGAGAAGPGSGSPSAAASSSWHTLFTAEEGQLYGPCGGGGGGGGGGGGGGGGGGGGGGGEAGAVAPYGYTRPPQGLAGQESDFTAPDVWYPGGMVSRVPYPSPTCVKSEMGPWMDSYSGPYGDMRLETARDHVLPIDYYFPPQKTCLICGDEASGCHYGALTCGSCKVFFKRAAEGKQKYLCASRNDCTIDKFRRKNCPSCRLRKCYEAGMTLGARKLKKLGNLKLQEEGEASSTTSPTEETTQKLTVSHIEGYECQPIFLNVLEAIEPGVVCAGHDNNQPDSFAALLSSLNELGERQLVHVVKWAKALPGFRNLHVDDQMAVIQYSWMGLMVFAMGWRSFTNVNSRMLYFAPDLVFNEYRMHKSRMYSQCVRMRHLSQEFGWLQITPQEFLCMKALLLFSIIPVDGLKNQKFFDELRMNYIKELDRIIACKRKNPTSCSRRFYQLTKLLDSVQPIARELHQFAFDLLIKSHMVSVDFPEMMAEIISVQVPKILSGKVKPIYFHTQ
T1 sequence (Q96SW2 whole entry partner): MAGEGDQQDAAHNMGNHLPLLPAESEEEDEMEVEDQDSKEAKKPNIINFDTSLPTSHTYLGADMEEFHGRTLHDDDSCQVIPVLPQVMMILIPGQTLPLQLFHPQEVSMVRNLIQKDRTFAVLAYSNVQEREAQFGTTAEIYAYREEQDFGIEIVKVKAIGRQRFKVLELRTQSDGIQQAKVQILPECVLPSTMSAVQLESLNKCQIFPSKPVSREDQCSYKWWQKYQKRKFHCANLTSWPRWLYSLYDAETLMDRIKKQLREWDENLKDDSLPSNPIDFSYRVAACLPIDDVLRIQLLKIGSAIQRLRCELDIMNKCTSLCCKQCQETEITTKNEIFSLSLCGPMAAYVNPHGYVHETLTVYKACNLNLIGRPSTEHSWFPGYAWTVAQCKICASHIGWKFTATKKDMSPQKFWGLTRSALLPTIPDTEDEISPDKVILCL
T1 sequence (Q16531 whole entry partner): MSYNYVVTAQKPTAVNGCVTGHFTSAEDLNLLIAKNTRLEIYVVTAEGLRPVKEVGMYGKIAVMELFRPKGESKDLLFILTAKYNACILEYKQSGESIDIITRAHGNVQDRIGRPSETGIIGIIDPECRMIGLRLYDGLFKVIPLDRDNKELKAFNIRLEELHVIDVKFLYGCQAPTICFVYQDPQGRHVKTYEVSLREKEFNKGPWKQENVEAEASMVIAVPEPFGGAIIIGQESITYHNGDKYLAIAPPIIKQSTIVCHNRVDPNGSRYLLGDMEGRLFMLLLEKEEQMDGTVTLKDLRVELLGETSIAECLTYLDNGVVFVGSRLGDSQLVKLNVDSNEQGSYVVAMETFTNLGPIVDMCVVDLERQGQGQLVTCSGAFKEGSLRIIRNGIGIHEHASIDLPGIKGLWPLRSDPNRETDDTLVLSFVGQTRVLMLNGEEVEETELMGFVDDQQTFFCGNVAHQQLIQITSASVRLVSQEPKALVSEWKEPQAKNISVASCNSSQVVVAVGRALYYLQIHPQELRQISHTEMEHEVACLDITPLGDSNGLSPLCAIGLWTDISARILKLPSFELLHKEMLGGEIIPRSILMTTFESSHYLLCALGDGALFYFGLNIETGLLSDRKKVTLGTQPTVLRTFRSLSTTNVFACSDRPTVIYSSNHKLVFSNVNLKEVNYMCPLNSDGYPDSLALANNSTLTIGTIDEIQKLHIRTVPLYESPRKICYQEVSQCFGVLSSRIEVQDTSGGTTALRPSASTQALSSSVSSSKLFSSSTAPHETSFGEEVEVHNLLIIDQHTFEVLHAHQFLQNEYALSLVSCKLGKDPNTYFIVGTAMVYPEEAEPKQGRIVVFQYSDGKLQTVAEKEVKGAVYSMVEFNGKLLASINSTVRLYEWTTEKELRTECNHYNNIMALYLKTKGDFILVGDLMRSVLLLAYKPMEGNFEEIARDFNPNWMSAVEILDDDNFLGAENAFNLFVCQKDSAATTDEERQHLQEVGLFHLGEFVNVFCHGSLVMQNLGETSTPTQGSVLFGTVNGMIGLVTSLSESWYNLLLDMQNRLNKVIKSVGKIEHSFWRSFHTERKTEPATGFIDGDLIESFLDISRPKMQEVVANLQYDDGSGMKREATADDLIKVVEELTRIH

Row | SMILES | Dmax [%]
1 | N#Cc1ccc(O[C@H]2CC[C@H](NC(=O)c3cnc(N4CCC(C(=O)N5CCC(n6ccc7c(N8CCC(=O)NC8=O)cccc76)CC5)CC4)nc3)CC2)cc1Cl [EAR69, N-((1r,4r)-4-(3-Chloro-4-cyanophenoxy)cyclohexyl)-2-(4-(4-(4-(2,4-dioxotetrahydropyrimidin-1(2H)-yl)-1H-indol-1-yl)piperidine-1-carbonyl)piperidin-1-yl)pyrimidine-5-carboxamide] | ≥ 50
2 | CN(CCCN1CCC(n2ncc3c(N4CCC(=O)NC4=O)cccc32)CC1)c1ccc(C(=O)N[C@H]2CC[C@H](Oc3ccc(C#N)c(Cl)c3)CC2)nn1 [EAR151, N-((1r,4r)-4-(3-Chloro-4-cyanophenoxy)cyclohexyl)-6-((3-(4-(4-(2,4-dioxotetrahydropyrimidin-1(2H)-yl)-1H-indazol-1-yl)piperidin-1-yl)propyl)(methyl)amino)pyridazine-3-carboxamide, formic acid salt] | ≥ 50
3 | N#Cc1ccc(O[C@H]2CC[C@H](NC(=O)c3ccc(N4CCC(N5CCC(n6ccc7c(N8CCC(=O)NC8=O)cccc76)CC5)CC4)nn3)CC2)cc1Cl [AR7, N-((1r,4r)-4-(3-Chloro-4-cyanophenoxy)cyclohexyl)-6-(4-(4-(2,4-dioxotetrahydropyrimidin-1(2H)-yl)-1H-indol-1-yl)-[1,4′-bipiperidin]-1′-yl)pyridazine-3-carboxamide] | ≥ 50
4 | CC(C)n1ccc2c(N3CCC(=O)NC3=O)cc(C(=O)N(C)CC3CCN(CCCCOc4ccc(C(=O)N[C@H]5CC[C@H](Oc6ccc(C#N)c(Cl)c6)CC5)nc4)CC3)cc21 [EAR65, N-((1-(4-((6-(((1r,4r)-4-(3-Chloro-4-cyanophenoxy)cyclohexyl)carbamoyl)pyridin-3-yl)oxy)butyl)piperidin-4-yl)methyl)-4-(2,4-dioxotetrahydropyrimidin-1(2H)-yl)-1-isopropyl-N-methyl-1H-indole-6-carboxamide] | ≥ 50
5 | CC1(C)[C@H](NC(=O)c2cnc(N3CCC(CN4CCC(n5ccc6c(N7CCC(=O)NC7=O)cccc65)CC4)CC3)cn2)C(C)(C)[C@H]1Oc1ccc(C#N)c(Cl)c1 [AR8, N-((1r,3r)-3-(3-Chloro-4-cyanophenoxy)-2,2,4,4-tetramethylcyclobutyl)-5-(4-((4-(4-(2,4-dioxotetrahydropyrimidin-1(2H)-yl)-1H-indol-1-yl)piperidin-1-yl)methyl)piperidin-1-yl)pyrazine-2-carboxamide] | ≥ 50
6 | N#Cc1ccc(O[C@H]2CC[C@H](NC(=O)c3ccc(N4CC(CN5CCC(n6ncc7c(N8CCC(=O)NC8=O)cccc76)CC5)C4)nn3)CC2)cc1Cl [EAR154, N-((1r,4r)-4-(3-Chloro-4-cyanophenoxy)cyclohexyl)-6-(3-((4-(4-(2,4-dioxotetrahydropyrimidin-1(2H)-yl)-1H-indazol-1-yl)piperidin-1-yl)methyl)azetidin-1-yl)pyridazine-3-carboxamide, formic acid salt] | ≥ 50
7 | N#Cc1ccc(O[C@H]2CC[C@H](NC(=O)c3ccc(N4CCC(CN5CCC(n6ccc7c(N8CCC(=O)NC8=O)cccc76)CC5)CC4)nc3)CC2)cc1Cl [EAR13, N-((1r,4r)-4-(3-Chloro-4-cyanophenoxy)cyclohexyl)-6-(4-((4-(4-(2,4-dioxotetrahydropyrimidin-1(2H)-yl)-1H-indol-1-yl)piperidin-1-yl)methyl)piperidin-1-yl)nicotinamide] | ≥ 50
8 | N#Cc1ccc(O[C@H]2CC[C@H](NC(=O)c3ccc(N4CCO[C@@H](CN5CCC(n6ccc7c(N8CCC(=O)NC8=O)cccc76)CC5)C4)nn3)CC2)cc1Cl [EAR125, N-((1r,4S)-4-(3-Chloro-4-cyanophenoxy)cyclohexyl)-6-((S)-2-((4-(4-(2,4-dioxotetrahydropyrimidin-1(2H)-yl)-1H-indol-1-yl)piperidin-1-yl)methyl)morpholino)pyridazine-3-carboxamide] | ≥ 50
9 | CC(C)n1ccc2c(N3CCC(=O)NC3=O)cc(C(=O)N(C)CC3CCN(CCCOc4ccc(C(=O)N[C@H]5CC[C@H](Oc6ccc(C#N)c(Cl)c6)CC5)nc4)CC3)cc21 [EAR61, N-((1-(3-((6-(((1r,4r)-4-(3-Chloro-4-cyanophenoxy)cyclohexyl)carbamoyl)pyridin-3-yl)oxy)propyl)piperidin-4-yl)methyl)-4-(2,4-dioxotetrahydropyrimidin-1(2H)-yl)-1-isopropyl-N-methyl-1H-indole-6-carboxamide] | ≥ 50
10 | C[C@@H]1CN(C(=O)Nc2cnc(N3CCC(CN4CCC(n5ccc6c(N7CCC(=O)NC7=O)cccc65)CC4)CC3)nc2)[C@@H](C)CN1c1ccc(C#N)c(Cl)c1 [EAR116, (2S,5R)-4-(3-Chloro-4-cyanophenyl)-N-(2-(4-((4-(4-(2,4-dioxotetrahydropyrimidin-1(2H)-yl)-1H-indol-1-yl)piperidin-1-yl)methyl)piperidin-1-yl)pyrimidin-5-yl)-2,5-dimethylpiperazine-1-carboxamide] | ≥ 50

Other lines, results leading:

Row | Dmax [%] | SMILES
11 | ≥ 50 | CC1(C)CC(CN2CCC(n3ncc4c(N5CCC(=O)NC5=O)cccc43)CC2)CN(c2ccc(C(=O)N[C@H]3CC[C@H](Oc4ccc(C#N)c(Cl)c4)CC3)nn2)C1 (stereo partly drawn) [EAR223, N-((1r,4r)-4-(3-chloro-4-cyanophenoxy)cyclohexyl)-6-(5-((4-(4-(2,4-dioxotetrahydropyrimidin-1(2H)-yl)-1H-indazol-1-yl)piperidin-1-yl)methyl)-3,3-dimethylpiperidin-1-yl)pyridazine-3-carboxamide]
12 | ≥ 50 | N#Cc1ccc(O[C@H]2CC[C@H](NC(=O)c3ccc(OC4CN(C(=O)CN5CCC(n6ccc7c(N8CCC(=O)NC8=O)cccc76)CC5)C4)nn3)CC2)cc1Cl [EAR178, N-((1r,4r)-4-(3-Chloro-4-cyanophenoxy)cyclohexyl)-6-((1-(2-(4-(4-(2,4-dioxotetrahydropyrimidin-1(2H)-yl)-1H-indol-1-yl)piperidin-1-yl)acetyl)azetidin-3-yl)oxy)pyridazine-3-carboxamide]
13 | ≥ 50 | N#Cc1ccc(O[C@H]2CC[C@H](NC(=O)c3ccc(N4CC5(CCC(CN6CCC(n7ncc8c(N9CCC(=O)NC9=O)cccc87)CC6)CC5)C4)nn3)CC2)cc1Cl [EAR225, N-((1r,4r)-4-(3-chloro-4-cyanophenoxy)cyclohexyl)-6-(7-((4-(4-(2,4-dioxotetrahydropyrimidin-1(2H)-yl)-1H-indazol-1-yl)piperidin-1-yl)methyl)-2-azaspiro[3.5]nonan-2-yl)pyridazine-3-carboxamide]
14 | ≥ 50 | N#Cc1ccc(O[C@H]2CC[C@H](NC(=O)c3cnc(N4CCC(CN5CCC(n6ccc7c(N8CCC(=O)NC8=O)ncnc76)CC5)CC4)cn3)CC2)cc1Cl [EAR196, N-((1r,4r)-4-(3-Chloro-4-cyanophenoxy)cyclohexyl)-5-(4-((4-(4-(2,4-dioxotetrahydropyrimidin-1(2H)-yl)-7H-pyrrolo[2,3-d]pyrimidin-7-yl)piperidin-1-yl)methyl)piperidin-1-yl)pyrazine-2-carboxamide hydrochloride]
15 | ≥ 50 | CC1CN(c2ccc(C(=O)N[C@H]3CC[C@H](Oc4ccc(C#N)c(Cl)c4)CC3)nn2)CCC1CN1CCC(n2ncc3c(N4CCC(=O)NC4=O)cccc32)CC1 (stereo partly drawn) [EAR234, N-((1r,4r)-4-(3-chloro-4-cyanophenoxy)cyclohexyl)-6-(4-((4-(4-(2,4-dioxotetrahydropyrimidin-1(2H)-yl)-1H-indazol-1-yl)piperidin-1-yl)methyl)-3-methylpiperidin-1-yl)pyridazine-3-carboxamide]
